Source: PubChem BioAssay (NCI)
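A five-concentration, 48-hour dose response in 96-well plates underlies each endpoint, interpolated linearly between surrounding concentrations. GI50 = concentration required for 50% inhibition of growth. TGI: concentration producing complete growth inhibition.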

Columns and labels:
Assay in all cases: growth of human tumour cells (NCI), 48 h
[1] = tested on: HS 578T breast
[2] = tested on: OVCAR-4 ovarian
[3] = tested on: HCC-2998 colon
[4] = tested on: MCF7 breast
[5] = tested on: TK-10 renal
[6] = tested on: RXF 393 renal
[7] = tested on: HOP-92 NSCLC
[8] = tested on: NCI-H460 lung
[9] = tested on: HCT-116 colon
[10] = tested on: KM12 colon
[11] = tested on: SK-MEL-28 melanoma
[12] = tested on: OVCAR-8 ovarian
[13] = tested on: OVCAR-5 ovarian
[14] = tested on: 786-0 renal
[15] = tested on: PC-3 prostate
[16] = tested on: ACHN renal
[17] = tested on: A498 renal
[18] = tested on: CAKI-1 renal
[19] = tested on: NCI-H23 lung
[20] = tested on: UO-31 renal
[21] = tested on: COLO 205 colon
[22] = tested on: SK-OV-3 ovarian
[23] = tested on: EKVX NSCLC
[24] = tested on: K-562 leukemia
[25] = tested on: HCT-15 colon
[26] = tested on: IGROV1 ovarian
[27] = tested on: MALME-3M melanoma
[28] = tested on: CCRF-CEM leukemia

O=C(NCCCNc1cc(-c2cn(-c3ccccc3)nc2-c2cccc(O)c2)ccn1)Nc1ccc(F)cc1
GI50 [1]: 0.984 µM
TGI [1]: 5.31 µM
GI50 [2]: 1.46 µM
TGI [2]: 8.21 µM
GI50 [3]: 1.09 µM
TGI [3]: 4.05 µM
GI50 [4]: 2.32 µM
TGI [4]: 6.04 µM
GI50 [5]: 6.78 µM
TGI [5]: 20.3 µM
GI50 [6]: 0.966 µM
TGI [6]: 4.85 µM
GI50 [7]: 0.86 µM
TGI [7]: 4.97 µM
GI50 [8]: 2.35 µM
TGI [8]: 5.88 µM
GI50 [9]: 1.62 µM
TGI [9]: 5.82 µM
GI50 [10]: 2.61 µM
TGI [10]: 5.79 µM
GI50 [11]: 2.54 µM
TGI [11]: 5.64 µM
GI50 [12]: 2.13 µM
TGI [12]: 9.26 µM
GI50 [13]: 3.37 µM
TGI [13]: 9.12 µM
GI50 [14]: 0.855 µM
TGI [14]: 3.61 µM
GI50 [15]: 1.33 µM
TGI [15]: 8.92 µM
GI50 [16]: 3.16 µM
TGI [16]: 14.2 µM
GI50 [17]: 1.21 µM
TGI [17]: 4.96 µM
GI50 [18]: 2.04 µM
TGI [18]: 10.7 µM
GI50 [19]: 3.11 µM
TGI [19]: 7.65 µM
GI50 [20]: 1.58 µM
TGI [20]: 9.7 µM
GI50 [21]: 2.34 µM
TGI [21]: 6.28 µM
GI50 [22]: 3.12 µM
TGI [22]: 10.8 µM
GI50 [23]: 2.74 µM
TGI [23]: 9.51 µM
GI50 [24]: 0.812 µM
TGI [24]: 25 µM
GI50 [25]: 0.936 µM
TGI [25]: 4.04 µM
GI50 [26]: 1.23 µM
TGI [26]: 5.82 µM
GI50 [27]: 0.826 µM
TGI [27]: 3.42 µM
GI50 [28]: 1.42 µM
TGI [28]: 25 µM
